Assay results: patent US10278957B2, “Opioid agonist peptides and uses thereof” (Protagonist Therapeutics, Inc., priority 2017, dated 2019)
Square brackets hold non-standard residues; d marks the D form. Peptide text beside a SMILES is read from it. Phe(2,6-Me2,4-CONH2) = Cc1cc(C(N)=O)cc(C)c1C[C@H](N)C(=O)O; Phe(4-CN) = N#Cc1ccc(C[C@H](N)C(=O)O)cc1; Phe(4-F) = N[C@@H](Cc1ccc(F)cc1)C(=O)O; Dmt = Cc1cc(O)cc(C)c1C[C@H](N)C(=O)O; hPhe = N[C@@H](CCc1ccccc1)C(=O)O; β3hF = N[C@H](CC(=O)O)Cc1ccccc1; Nle = CCCC[C@H](N)C(=O)O; dNMeA = CN[C@H](C)C(=O)O; Sar = CNCC(=O)O

Experiments:
[1] = target: T1, μ-opioid receptor (MOR) (Homo sapiens, UniProt P35372); experiment: MOR agonist cAMP assay (HitHunter cAMP, forskolin-stimulated); type: cell-based
T1 construct: host or cells: cAMP Hunter CHO-K1 OPRM1 Gαi cell line
Protocol: (§1) The HitHunter® cAMP chemiluminescent assay kit (DiscoveRx, Cat# 90-0075 SM25) was used to detect cAMP production in cAMP Hunter™ Gαi cell lines over expressing either Human-ORPM1 (Discoverx, Catalog# 95-0107C2) or Human-ORPD1 (DiscoveRx, Catalog# 95-0108C2). Opioid agonist binding to the Gαi receptors inhibits the intracellular cAMP accumulation induced by forskolin, which activates adenylate cyclase and increases intracellular levels of cAMP.
(§2) Cells were cultured in media consisting of Ham's F-12 Nutrient Mix (Life Technologies, Catalog#31765035), 10% FBS (Life Technologies, Catalog# 16140-071), 4 mM GlutaMAX (Life Technologies, Catalog#35050-061), […] (Life Technologies), 100 ug/ml of Penn-Strep (Life Technologies) and 0.5 mg/ml Geneticin (Life Technologies, Catalog# 10131-027). The cultures were maintained at 37° C. under 5% CO2.
(§3) In preparation for cAMP assay, the cells were seeded at a density of 300,000 cells/ml in 100 ul of media/well in 96-well microplate. Wells that were designated for cAMP standards were left empty.
(§4) Opioid agonist serial dilutions were prepared in separate dilution plate (11-point series of 3× (3-fold) dilution) in Cell Assay buffer, including 3× forskolin for Gαi target. For Hunter CHO-K1 OPRM1 or CHO-K1 OPRD1 Gαi Cell Lines, the final forskolin concentration was 20 uM.
(§5) 15 ul of each 3× opioid agonist serial dilution was added in the presence of forskolin in duplicate to the designated wells. The final concentration of each dilution was at 3× of the final screening concentration. The assay plate was incubated for 30 min, at 37° C. under 5% CO2.
(§6) Cellular cAMP concentrations were measured using the HitHunter cAMP Assay kit following the manufacturer's protocol. HitHunter cAMP assay is a gain-of-signal competitive immunoassay based on Enzyme Fragment Complementation (EFC) technology. The kit uses β-galactosidase (β-gal) enzyme split into Enzyme Donor (ED) and Enzyme Acceptor (EA). The cellular cAMP and ED-labelled cAMP compete for anti-cAMP antibody. […] When cellular cAMP level is high, it competes for the anti-cAMP antibody, thereby releasing ED-cAMP to complement with EA to produce a luminescent signal. The amount of signal is directly proportional to the amount of cAMP in cells and can be quantified using cAMP standards. The assay plates were read using a PerkinElmer Envision instrument to detect the chemiluminescence signal in each well (luminescence reader at 0.1 to 1 second/well). Data analysis was performed using Graphpad Prism 7.EC50 was calculated by nonlinear regression, using the four-parameter hill equation.

[2] = target: T2, δ-opioid receptor (DOR) (Homo sapiens, UniProt P41143); experiment: DOR agonist cAMP assay (HitHunter cAMP, forskolin-stimulated); type: cell-based
T2 construct: host or cells: cAMP Hunter CHO-K1 OPRD1 Gαi cell line
Protocol: as §1, §2, §3, §4, §5, §6

T2 sequence (P41143 whole entry): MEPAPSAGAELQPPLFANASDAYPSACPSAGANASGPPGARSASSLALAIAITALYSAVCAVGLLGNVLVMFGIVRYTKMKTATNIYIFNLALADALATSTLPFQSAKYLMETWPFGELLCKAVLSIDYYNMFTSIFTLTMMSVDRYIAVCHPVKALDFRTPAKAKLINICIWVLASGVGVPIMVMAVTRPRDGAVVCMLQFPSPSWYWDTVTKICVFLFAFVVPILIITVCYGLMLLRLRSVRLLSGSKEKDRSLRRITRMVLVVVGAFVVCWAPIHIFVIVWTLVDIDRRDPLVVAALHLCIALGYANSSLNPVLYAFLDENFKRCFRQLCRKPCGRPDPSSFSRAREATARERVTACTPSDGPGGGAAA
T1 sequence (P35372 whole entry): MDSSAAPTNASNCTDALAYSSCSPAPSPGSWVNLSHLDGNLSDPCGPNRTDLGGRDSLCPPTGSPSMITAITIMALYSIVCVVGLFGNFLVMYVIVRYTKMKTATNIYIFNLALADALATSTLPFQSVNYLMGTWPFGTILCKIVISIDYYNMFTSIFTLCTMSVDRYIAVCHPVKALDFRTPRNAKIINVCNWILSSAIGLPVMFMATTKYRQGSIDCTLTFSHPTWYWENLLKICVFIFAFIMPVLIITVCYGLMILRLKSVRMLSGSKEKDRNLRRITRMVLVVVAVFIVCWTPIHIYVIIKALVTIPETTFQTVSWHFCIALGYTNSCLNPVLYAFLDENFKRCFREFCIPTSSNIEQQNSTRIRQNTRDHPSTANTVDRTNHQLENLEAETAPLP

Cc1cc(O)cc(C)c1C[C@H](N)C(=O)N[C@H](CCCNC(=N)N)C(=O)N[C@@H](Cc1ccc(C#N)cc1)C(=O)N(C)CC(N)=O [compound 20] (H-[Dmt][dR][Phe(4-CN)][Sar]-NH2)
EC50 [1]: 1 to 10 nM
EC50 [2]: < 1 nM

Cc1cc(C(N)=O)cc(C)c1C[C@H](N)C(=O)N1Cc2ccccc2C[C@H]1C(=O)NCC(=O)N[C@H](CC(=O)N(C)CC(N)=O)Cc1ccccc1 [compound 103]
EC50 [1]: 50 to 200 nM
EC50 [2]: 50 to 200 nM

Cc1cc(O)cc(C)c1C[C@H](N)C(=O)N[C@H](CCCNC(=N)N)C(=O)N[C@@H](Cc1c[nH]cn1)C(=O)N[C@@H](CCCCN)C(N)=O [compound 4] (H-[Dmt][dR]HK-NH2)
EC50 [1]: 10 to 50 nM
EC50 [2]: > 200 nM

Cc1cc(O)cc(C)c1C[C@H](N)C(=O)N[C@H](CC(=O)O)C(=O)NCC(=O)N[C@H](CC(=O)N(C)[C@H](C(=O)O)C(C)C)Cc1ccccc1 [compound 173]
EC50 [1]: < 1 nM
EC50 [2]: < 1 nM

Cc1cc(C(N)=O)cc(C)c1C[C@H](N)C(=O)N[C@H](C)C(=O)NCC(=O)N[C@H](CC(=O)N(C)[C@@H](Cc1c[nH]c2ccccc12)C(=O)O)Cc1ccccc1 [compound 106]
EC50 [1]: 1 to 10 nM
EC50 [2]: 1 to 10 nM

Cc1cc(C(N)=O)cc(C)c1C[C@H](N)C(=O)NCC(=O)NCC(=O)N[C@H](CC(=O)N(C)CC(N)=O)Cc1ccccc1 [compound 74] (H-[Phe(2,6-Me2,4-CONH2)]GG[β3hF][Sar]-NH2)
EC50 [1]: < 1 nM
EC50 [2]: < 1 nM

CCCC[C@H](NC(=O)[C@H](CCc1ccccc1)NC(=O)CNC(=O)[C@@H](C)NC(=O)[C@@H](N)Cc1c(C)cc(O)cc1C)C(N)=O [compound 49]
EC50 [1]: < 1 nM

CCCC[C@@H](C(=O)O)N(C)C(=O)C[C@H](Cc1c[nH]c2ccccc12)NC(=O)CNC(=O)[C@@H](C)NC(=O)[C@@H](N)Cc1c(C)cc(C(N)=O)cc1C [compound 139]
EC50 [1]: < 1 nM
EC50 [2]: 1 to 10 nM

C[C@@H](NC(=O)[C@@H](N)Cc1c[nH]c2ccc(O)cc12)C(=O)NCC(=O)N[C@H](CC(=O)N(C)CC(N)=O)Cc1ccccc1 [compound 63]
EC50 [1]: 50 to 200 nM
EC50 [2]: 50 to 200 nM

CCCC[C@@H](C(=O)O)N(C)C(=O)C[C@H](Cc1cccc(C)c1)NC(=O)CNC(=O)[C@@H](C)NC(=O)[C@@H](N)Cc1c(C)cc(C(N)=O)cc1C [compound 164]
EC50 [1]: < 1 nM
EC50 [2]: < 1 nM

Cc1cc(O)cc(C)c1C[C@H](N)C(=O)N[C@H](C)C(=O)N[C@@H](CC(C)C)C(=O)N[C@H](CC(=O)N(C)CC(N)=O)Cc1ccccc1 [compound 67] (H-[Dmt][dA]L[β3hF][Sar]-NH2)
EC50 [1]: < 1 nM
EC50 [2]: 10 to 50 nM

Cc1cc(O)cc(C)c1C[C@H](N)C(=O)N[C@@H](C(=O)NCC(=O)N[C@H](CC(=O)N(C)[C@@H](C)C(=O)O)Cc1ccccc1)[C@H](C)O [compound 183]
EC50 [1]: < 1 nM
EC50 [2]: < 1 nM

CCCC[C@@H](C(=O)O)N(C)C(=O)C[C@H](Cc1cccc(F)c1)NC(=O)CNC(=O)[C@@H](C)NC(=O)[C@@H](N)Cc1c(C)cc(O)cc1C [compound 144]
EC50 [1]: < 1 nM
EC50 [2]: < 1 nM

Cc1cc(O)cc(C)c1C[C@H](N)C(=O)N[C@H](CC(=O)O)C(=O)NCC(=O)N[C@H](CC(=O)N(C)[C@@H](Cc1ccc(O)cc1)C(=O)O)Cc1ccccc1 [compound 180]
EC50 [1]: < 1 nM
EC50 [2]: < 1 nM

Cc1cc(O)cc(C)c1C[C@H](N)C(=O)N[C@H](CC(=O)O)C(=O)NCC(=O)N[C@H](CC(=O)N(C)[C@@H](CC(C)C)C(=O)O)Cc1ccccc1 [compound 169]
EC50 [1]: < 1 nM
EC50 [2]: < 1 nM

CC(=O)Nc1ccc(C[C@H](N)C(=O)N[C@H](C)C(=O)NCC(=O)N[C@H](CC(=O)N(C)CC(N)=O)Cc2ccccc2)cc1 [compound 59]
EC50 [1]: 10 to 50 nM
EC50 [2]: 50 to 200 nM

CCCC[C@@H](C(=O)O)N(C)C(=O)C[C@H](Cc1ccc(I)cc1)NC(=O)CNC(=O)[C@@H](C)NC(=O)[C@@H](N)Cc1c(C)cc(C(N)=O)cc1C [compound 136]
EC50 [1]: < 1 nM
EC50 [2]: < 1 nM

CC[C@H](C)[C@@H](C(=O)O)N(C)C(=O)C[C@H](Cc1ccccc1)NC(=O)CNC(=O)[C@H](NC(=O)[C@@H](N)Cc1c(C)cc(O)cc1C)[C@H](C)O [compound 182]
EC50 [1]: < 1 nM
EC50 [2]: < 1 nM

CC[C@H](C)[C@@H](C(=O)O)N(C)C(=O)C[C@H](Cc1ccccc1)NC(=O)CNC(=O)[C@@H](CCC(=O)O)NC(=O)[C@@H](N)Cc1c(C)cc(O)cc1C [compound 186]
EC50 [1]: 1 to 10 nM
EC50 [2]: < 1 nM

C[C@@H](NC(=O)[C@@H](N)Cc1ccc(C(=O)O)cc1)C(=O)NCC(=O)N[C@H](CC(=O)N(C)CC(N)=O)Cc1ccccc1 [compound 89]
EC50 [1]: 50 to 200 nM
EC50 [2]: 50 to 200 nM

Cc1cc(O)cc(C)c1C[C@H](N)C(=O)NC(C)(C)C(=O)NCC(=O)N[C@H](CC(=O)N(C)CC(N)=O)Cc1ccccc1 [compound 90]
EC50 [1]: < 1 nM
EC50 [2]: 1 to 10 nM

Cc1cc(C(N)=O)cc(C)c1C[C@H](N)C(=O)N[C@H](C)C(=O)NCC(=O)N[C@H](CC(=O)NCC(N)=O)Cc1ccccc1 [compound 94]
EC50 [1]: < 1 nM
EC50 [2]: 1 to 10 nM

Cc1cc(C(N)=O)cc(C)c1C[C@H](N)C(=O)N[C@H](C)C(=O)NCC(=O)N1Cc2ccccc2C[C@H]1C(=O)N(C)CC(N)=O [compound 108]
EC50 [1]: 1 to 10 nM
EC50 [2]: 10 to 50 nM

Cc1cc(O)cc(C)c1C[C@H](N)C(=O)N[C@H](CCCNC(=N)N)C(=O)N[C@@H](Cc1ccc(F)cc1)C(=O)N(C)CC(N)=O [compound 19] (H-[Dmt][dR][Phe(4-F)][Sar]-NH2)
EC50 [1]: < 1 nM
EC50 [2]: 1 to 10 nM

Cc1cc(O)cc(C)c1C[C@H](N)C(=O)N[C@H](CC(=O)O)C(=O)NCC(=O)N[C@H](CC(=O)N(C)[C@@H](Cc1c[nH]c2ccccc12)C(=O)O)Cc1ccccc1 [compound 171]
EC50 [1]: < 1 nM
EC50 [2]: < 1 nM

CCCC[C@@H](C(=O)O)N(C)C(=O)C[C@H](Cc1ccccc1F)NC(=O)CNC(=O)[C@@H](C)NC(=O)[C@@H](N)Cc1c(C)cc(O)cc1C [compound 143]
EC50 [1]: < 1 nM
EC50 [2]: < 1 nM

C[C@@H](NC(=O)[C@@H](N)Cc1ccc(C(N)=O)cc1)C(=O)NCC(=O)N[C@H](CC(=O)N(C)CC(N)=O)Cc1ccccc1 [compound 60]
EC50 [1]: 1 to 10 nM
EC50 [2]: 1 to 10 nM

CC[C@H](C)[C@@H](C(=O)O)N(C)C(=O)C[C@H](Cc1ccccc1)NC(=O)CNC(=O)[C@@H](C)NC(=O)[C@@H](N)Cc1c(C)cc(O)cc1C [compound 113]
EC50 [1]: < 1 nM
EC50 [2]: < 1 nM

CCC[C@@H](C(=O)O)N(C)C(=O)C[C@H](Cc1ccccc1)NC(=O)CNC(=O)[C@@H](C)NC(=O)[C@@H](N)Cc1c(C)cc(C(N)=O)cc1C [compound 97]
EC50 [1]: < 1 nM
EC50 [2]: < 1 nM

CC[C@H](C)[C@@H](C(=O)O)N(C)C(=O)C[C@H](Cc1ccccc1)NC(=O)CNC(=O)[C@@H](CC(=O)O)NC(=O)[C@@H](N)Cc1c(C)cc(O)cc1C [compound 172]
EC50 [1]: < 1 nM
EC50 [2]: < 1 nM

CCCC[C@H](NC(=O)[C@H](CCc1ccccc1)NC(=O)[C@@H](C)NC(=O)[C@@H](N)Cc1c(C)cc(O)cc1C)C(N)=O [compound 48] (H-[Dmt][dA][hPhe][Nle]-NH2)
EC50 [1]: < 1 nM
EC50 [2]: < 1 nM

Cc1cc(O)cc(C)c1C[C@H](N)C(=O)N[C@H](CC(=O)O)C(=O)NCC(=O)N[C@H](CC(=O)N(C)[C@@H](Cc1ccccc1)C(=O)O)Cc1ccccc1 [compound 177]
EC50 [1]: < 1 nM
EC50 [2]: < 1 nM

Cc1cc(O)cc(C)c1C[C@H](N)C(=O)N(C)[C@H](C)C(=O)N[C@@H](Cc1ccccc1)C(=O)N(C)CC(N)=O [compound 10] (H-[Dmt][dNMeA]F[Sar]-NH2)
EC50 [1]: < 1 nM
EC50 [2]: 1 to 10 nM

Cc1cc(O)cc(C)c1C[C@H](N)C(=O)N[C@H](CCC(=O)O)C(=O)NCC(=O)N[C@H](CC(=O)N(C)CC(N)=O)Cc1ccccc1 [compound 187]
EC50 [1]: < 1 nM
EC50 [2]: 1 to 10 nM

CCCC[C@@H](C(=O)O)N(C)C(=O)[C@@H](Cc1ccccc1)N(C)C(=O)CNC(=O)[C@@H](C)NC(=O)[C@@H](N)Cc1c(C)cc(O)cc1C [compound 154]
EC50 [1]: < 1 nM

C[C@@H](NC(=O)[C@@H](N)Cc1ccc(O)cc1)C(=O)NCC(=O)N[C@H](CC(=O)N(C)CC(N)=O)Cc1ccccc1 [compound 62]
EC50 [2]: 1 to 10 nM
